Data set [1] concerns A549. The data set is described as follows: in vitro screen against human tumor cell line A549 (lung), GI50. In kind it is cell-based.
Data set [2] deals with DU145. Briefly: in vitro screen against human tumor cell line DU-145 (prostate), GI50. In kind it is cell-based.
For data set [3], the system named is KB. The data set is described as follows: in vitro screen against human tumor cell line KB (nasopharyngeal), GI50. In kind it is cell-based. The settings on record: read-out: GI50 KB.
Data set [4] relates to HCT-8. The data set is described as follows: in vitro screen against human tumor cell line HCT-8 (colon), GI50. In kind it is cell-based. The settings on record: Homo sapiens.
Data set [5] relates to KBvin. Briefly: in vitro screen against KBvin cell line, GI50. The data set is classed as cell-based. The settings on record: Homo sapiens.
In data set [6] the test system is panel of cancer cell lines including A549 (lung), DU-145 (prostate), KB (nasopharyngeal), and HCT-8 (colon).
Where [7] appears, read: Homo sapiens, A549, Example 2, Table 2, 12-aza-antofines, read-out: GI50 A549.
Where [8] appears, read: Homo sapiens, DU-145, Example 2, Table 2, 12-aza-antofines, read-out: GI50 DU145.
Setting [9] is: Homo sapiens, KB, Example 2, Table 2, 12-aza-antofines.
Setting [10] is: HCT-8, Example 2, Table 2, 12-aza-antofines, read-out: GI50 HCT-8.
[11] abbreviates: Homo sapiens, A549, Example 2, Table 4, 12-aza-cryptopleurines, read-out: GI50 A549.
The mark [12] stands for this setting: Homo sapiens, DU-145, Example 2, Table 4, 12-aza-cryptopleurines, read-out: GI50 DU145.
The mark [13] stands for this setting: Homo sapiens, KB, Example 2, Table 4, 12-aza-cryptopleurines.
Setting [14] is: HCT-8, Example 2, Table 4, 12-aza-cryptopleurines, read-out: GI50 HCT-8.
Where [15] appears, read: Homo sapiens, A549, Example 3, Table 1, read-out: GI50 A549.
[16] abbreviates: Homo sapiens, DU-145, Example 3, Table 1, read-out: GI50 DU145.
[17] abbreviates: Homo sapiens, KB, Example 3, Table 1.
Setting [18] is: Homo sapiens, A549, Example 2, Table 3, 13-aza-cryptopleurines, read-out: GI50 A549.
[19] abbreviates: Homo sapiens, DU-145, Example 2, Table 3, 13-aza-cryptopleurines, read-out: GI50 DU145.
[20] abbreviates: Homo sapiens, KB, Example 2, Table 3, 13-aza-cryptopleurines.
Where [21] appears, read: Table 3, cells marked (KBvin) in the HCT-8 column.
[22] abbreviates: HCT-8, Example 2, Table 3, 13-aza-cryptopleurines, read-out: GI50 HCT-8.
Setting [23] is: Homo sapiens, A549, read-out: GI50 A549.
The mark [24] stands for this setting: Homo sapiens, DU-145, read-out: GI50 DU145.

Consider 19 molecules from patent publication US9216977B2 (The University of North Carolina at Chapel Hill, priority 2009, dated 2015).

SMILES strings stand for the structures. Like-named read-outs stand apart in the source and are kept apart here.

A word on the GI50: it is the concentration at which growth is held to half of that of the control. For orientation: melting point means the temperature of the solid-liquid transition.

`COc1ccc2c3c(c4cc(OC)c(OC)cc4c2c1)C[C@H]1CN(C2CC2)CN1C3` [Compound 3g, (S)-12-aza-12N-cyclopropyl-antofine] came in with a melting point of 204 to 206 °C. Besides, the GI50 in data set [1] (setting [7]) was determined as 1.8 µM. For the same molecule, the GI50 in data set [2] (setting [8]) amounted to 3.7 µM. The GI50 in data set [3] (setting [9]) is 2.71 µM. Moreover, the GI50 in data set [4] (setting [10]) was found to be 1.85 µM.
On to `COc1ccc2c3c(c4cc(OC)c(OC)cc4c2c1)C[C@H]1CCN(Cc2ccccc2)CN1C3` [Compound 11d, (S)-12-aza-12N-benzyl-cryptopleurine], for which the melting point is 211 to 213 °C. In addition, in data set [1] (setting [11]), the GI50 is 29.9 µM. In data set [2] (setting [12]), the GI50 was above 40 µM. In addition, the GI50 in data set [3] (setting [13]) was above 40 µM. In data set [4] (setting [14]), the GI50 was found to be 21.3 µM.
`COc1ccc2c3c(c4cc(OC)c(OC)cc4c2c1)CC1CN(Cc2ccccc2)CN1C3` (stereo in doubt) [Compound 3j, (R)-12-aza-12N-benzyl-antofine] registered a melting point of 95 to 97 °C. For the same molecule, the GI50 in data set [1] (setting [7]) was found to be 2.68 µM. The GI50 in data set [2] (setting [8]) amounted to 4.62 µM. The GI50 in data set [3] (setting [9]) is 3.41 µM. For the same molecule, in data set [5] (Table 2, cells marked (KBvin) in the HCT-8 column), the GI50 turned out to be 1.87 µM.
Take `COc1ccc2c3c(c4cc(OC)c(OC)cc4c2c1)C[C@H]1C[C@@H](O)CN1C3` [Compound 9a, (12R,13aS)-12-hydroxyl-antofine]: the GI50 in data set [1] (setting [15]) worked out at 0.61 µM; in data set [2] (setting [16]) it was 0.7 µM; in data set [3] (setting [17]), 0.78 µM; in data set [5] (KBVIN, Example 3, Table 1), 0.64 µM. For the same molecule, in data set [6], the “range of cytotoxicity / anticancer activity in words” value is “middle nM to low μM range”. In addition, the “activity of 12R isomer compared with 12S isomer (9b)” value in data set [6] (Example 3) is recorded as 3 fold.
As to `CCCN1C[C@@H]2Cc3c(c4ccc(OC)cc4c4cc(OC)c(OC)cc34)CN2C1` [Compound 3c, (S)-12-aza-12N-propyl-antofine], the melting point was in the range of 155 to 157 °C. Moreover, in data set [1] (setting [7]), the GI50 came to 3.94 µM. For the same molecule, in data set [2] (setting [8]), the concentration for 50% growth inhibition (GI50) is 7.38 µM. The GI50 in data set [3] (setting [9]) was determined as 6.64 µM. Besides, in data set [4] (setting [10]), the GI50 worked out at 2.71 µM.
As to `COc1ccc2c3c(c4cc(OC)c(OC)cc4c2c1)CC1CCN(CC(C)C)CN1C3` (stereo in doubt) [Compound 11g, (R)-12-aza-12N-isobutyl-cryptopleurine], the melting point lay in the range of 175 to 177 °C. Further, the GI50 in data set [1] (Example 2, Table 4, 12-aza-cryptopleurines, read-out: GI50 A549) stood at 5.11 µM. For the same molecule, the GI50 in data set [2] (Example 2, Table 4, 12-aza-cryptopleurines, read-out: GI50 DU145) is 1.66 µM. The GI50 in data set [3] (Example 2, Table 4, 12-aza-cryptopleurines) was determined as 1.45 µM. The same molecule had a GI50 in data set [5] (Table 4, cell marked (KBvin) in the HCT-8 column) of 7.32 µM.
Molecule `COc1ccc2c3c(c4cc(OC)c(OC)cc4c2c1)C[C@H]1CN(CCO)CN1C3` [Compound 3e, (S)-12-aza-12N-hydroxylethyl-antofine] registered a melting point of 210 to 212 °C. Further, the GI50 in data set [1] (setting [7]) worked out at 4.41 µM. Besides, the GI50 in data set [2] (setting [8]) was found to be 6.36 µM. The GI50 in data set [3] (setting [9]) came out at 7.83 µM. Further, the GI50 in data set [4] (setting [10]) worked out at 10.8 µM.
As for `COc1ccc2c3c(c4cc(OC)c(OC)cc4c2c1)C[C@H]1CC(=O)CN1C3` [Compound 8, (S)-12-oxo-antofine], the GI50 stood at 0.29 µM in data set [1] (setting [15]); 0.71 µM in data set [2] (setting [16]); 0.5 µM in data set [3] (setting [17]); 0.43 µM in data set [5] (KBVIN, Example 3, Table 1). The “range of cytotoxicity / anticancer activity in words” value in data set [6] is listed as “middle nM to low μM range”.
With `COc1ccc2c3c(c4cc(OC)c(OC)cc4c2c1)C[C@H]1CCN(CCO)CN1C3` [Compound 11a, (S)-12-aza-12N-hydroxylethyl-cryptopleurine], the melting point was 138 to 140 °C. Also, the GI50 in data set [1] (setting [11]) was determined as 5.68 µM. The GI50 in data set [2] (setting [12]) turned out to be 1.99 µM. Further, in data set [3] (setting [13]), the GI50 came out at 1.59 µM. The GI50 in data set [4] (setting [14]) was 10.7 µM.
In turn, `COc1ccc2c3c(c4cc(OC)c(OC)cc4c2c1)CC1CN(CC(C)C)CCN1C3` (stereo in doubt) [Compound 8m, (R)-13-aza-13N-isobutyl-cryptopleurine] showed a melting point of 175 to 177 °C. For the same molecule, in data set [1] (setting [18]), the GI50 is 12.9 µM. Also, the GI50 in data set [2] (setting [19]) was 12.2 µM. The GI50 in data set [3] (setting [20]) came out at 11.2 µM. The same molecule came in with a concentration for 50% growth inhibition (GI50) in data set [5] (setting [21]) of 9.96 µM.
`COC(=O)N1CCN2Cc3c(c4cc(OC)c(OC)cc4c4cc(OC)ccc34)C[C@H]2C1` [Compound 8c, (S)-13-aza-13N-methoxycarbonyl-cryptopleurine]: the melting point fell in the range of 99 to 101 °C. Also, the 50% growth inhibitory concentration (GI50) in data set [1] (setting [18]) was 10.9 µM. Also, the GI50 in data set [2] (setting [19]) amounted to 12.2 µM. Moreover, the GI50 in data set [3] (setting [20]) amounted to 11.3 µM. Also, in data set [4] (setting [22]), the GI50 was 12.1 µM.
For the molecule `COC(=O)CN1CCN2Cc3c(c4cc(OC)c(OC)cc4c4cc(OC)ccc34)C[C@H]2C1` [Compound 8f, (S)-13-aza-13N-methoxycarbonylmethyl-cryptopleurine], the melting point was 111 to 113 °C. Besides, the GI50 in data set [1] (setting [18]) was determined as 14.7 µM. Also, the GI50 in data set [2] (setting [19]) was determined as 20.8 µM. Besides, the GI50 in data set [3] (setting [20]) turned out to be 14.7 µM. For the same molecule, the GI50 in data set [4] (setting [22]) amounted to 14 µM.
`COc1ccc2c3c(c4cc(OC)c(OC)cc4c2c1)C[C@H]1CN(CCc2ccccc2)CN1C3` [Compound 3d, (S)-12-aza-12N-phenylethylenyl-antofine]: the melting point was in the range of 85 to 87 °C. For the same molecule, the GI50 in data set [1] (setting [23]) was 6.62 µM. In data set [2] (setting [24]), the GI50 came to 10.2 µM. Moreover, the GI50 in data set [3] (Homo sapiens, KB) was found to be 10 µM. In addition, in data set [4] (HCT-8, read-out: GI50 HCT-8), the concentration for 50% growth inhibition (GI50) came out at 7.47 µM.
As to `COc1ccc2c3c(c4cc(OC)c(OC)cc4c2c1)C[C@H]1CN(CCO)CCN1C3` [Compound 8j, (S)-13-aza-13N-hydroxylethyl-cryptopleurine], the melting point is 266 °C (dec.). Moreover, in data set [1] (setting [18]), the GI50 was 14.1 µM. Besides, the GI50 in data set [2] (setting [19]) is 12.6 µM. In addition, the GI50 in data set [3] (setting [20]) was determined as 8.62 µM. Further, the GI50 in data set [4] (setting [22]) is 7.41 µM.
As for `COc1ccc2c3c(c4cc(OC)c(OC)cc4c2c1)C[C@H]1CN(C(C)=O)CCN1C3` [Compound 8d, (S)-13-aza-13N-acetyl-cryptopleurine], the melting point lay within 123 to 125 °C. The GI50 in data set [1] (setting [23]) came to 11.7 µM. For the same molecule, the GI50 in data set [2] (setting [24]) turned out to be 11.9 µM. Besides, the GI50 in data set [3] (Homo sapiens, KB) was determined as 15.5 µM. Further, the GI50 in data set [4] (HCT-8, read-out: GI50 HCT-8) was determined as 13.8 µM.
On to `COc1ccc2c3c(c4cc(OC)c(OC)cc4c2c1)C[C@H]1CN(C(=O)c2ccccc2)CCN1C3` [Compound 8i, (S)-13-aza-13N-benzoyl-cryptopleurine], for which the melting point was 203 °C (dec.). The GI50 in data set [1] (setting [18]) came out at 15 µM. Further, the GI50 in data set [2] (setting [19]) was found to be 15.7 µM. In data set [3] (setting [20]), the GI50 came out at 20.1 µM. Further, in data set [4] (setting [22]), the GI50 stood at 18.1 µM.
Regarding `COc1ccc2c3c(c4cc(OC)c(OC)cc4c2c1)C[C@H]1C[C@H](O)CN1C3` [Compound 9b, (12S,13aS)-12-hydroxyl-antofine], the GI50 in data set [1] (setting [15]) worked out at 2.27 µM; in data set [2] (setting [16]) it was 1.8 µM; in data set [3] (setting [17]), 1.81 µM; in data set [5] (KBVIN, Example 3, Table 1) it was 2.21 µM. In data set [6], the “range of cytotoxicity / anticancer activity in words” value is given as “middle nM to low μM range”.
The molecule `COc1ccc2c3c(c4cc(OC)c(OC)cc4c2c1)C[C@H]1CN(CC2CC2)CCN1C3` [Compound 8g, (S)-13-aza-13N-cyclopropylmethyl-cryptopleurine] had a melting point of 160 to 162 °C. In data set [1] (setting [18]), the GI50 is 0.79 µM. The GI50 in data set [2] (setting [19]) came to 2.94 µM. Further, in data set [3] (setting [20]), the GI50 is 6.57 µM. In data set [4] (setting [22]), the GI50 was 0.25 µM.
Take `COc1ccc2c3c(c4cc(OC)c(OC)cc4c2c1)CC1CN(Cc2ccccc2)CCN1C3` (stereo in doubt) [Compound 8n, (R)-13-aza-13N-benzyl-cryptopleurine]: the melting point is 86 to 88 °C. Also, the GI50 in data set [1] (setting [18]) came out at 16.4 µM. The GI50 in data set [2] (setting [19]) was 11.9 µM. In data set [3] (setting [20]), the GI50 came to 12.1 µM. The same molecule gave a GI50 in data set [5] (setting [21]) of 7.64 µM.
